# In patent US20240262934A1, “STARCH-INDOLE-ACID DERIVATIVE, PREPARATION METHOD THEREFOR, AND USE THEREOF” (SHANDONG SHANWEI IMMUNOTECH CO., LTD., priority 2021, published 2024):
# Read-outs that look alike come from different tables or passages of the source.
# Columns and labels:
# [1] = Concentration of IAA in hepatic portal blood serum for different modes of administration; type: in vivo, mice
# From the text: Blank control group; • 2.
# [2] = Concentration of IAA/IPA in colonic contents for different modes of administration; settings: for concentration of IAA in feces (colonic contents, FIG. 8), improvement compared with the control group: 0.068 mmol IAANa
# Experimental: (§2) A high performance liquid chromatography-tandem mass spectrometry (HPLC-MS/MS) technique was used to detect the content of metabolites IAA/IPA in each sample separately. Determination of the content of IAA/IPA in mouse feces: methanol was added into the collected feces, then vortexing, ultrasound extraction, and centrifuging were performed, a supernatant was taken to obtain an extract, the obtained extract was treated, IAA/IPA internal standards (IAA-d5/IPA-d2) were added for calibration, then purification was performed by using a small HLB solid-phase extraction column (pretreated with 5 mL of methanol and 5 mL water, then rinsed with 5 mL of a methanol/water mixed solution and 5 mL of water, an effluent being discarded, and finally eluted with 5 mL of methanol before use), and an eluate was analyzed by HPLC-MS/MS to detect IAA/IPA. Determination of the content of IAA/IPA in the hepatic portal blood and the peripheral blood: whole blood collected was allowed to stand and centrifuged at low temperature, and a supernatant was taken to obtain serum, and then an internal standard was added into the serum, purification was performed by using a solid-phase extraction column, and metabolites IAA/IPA in an eluate were detected by HPLC-MS/MS by the same method as described above. Determination of the content of IAA/IPA in the colon tissues: methanol was added into colon tissues collected, ultrasonically disrupted and further uniformly ground, then vortexing, ultrasound extraction, and centrifuging were performed, a supernatant was taken to obtain an extract, and then an internal standard was added into serum, purification was performed by using a solid-phase extraction column, and the concentration of IAA/IPA in the extract was detected by HPLC-MS/MS by the same method as described above.
# (§3) The experiments were divided into 5 groups in total: • 1. Blank control group; • 2. […] IAANa-containing water drinking group (with the IAANa concentration of 2.68 mg/mL, average daily drinking of 5 mL of water per mouse, and a total intake of 0.068 mmol IAANa); • 4. Gavage group (with the IAANa concentration of 67 mg/mL, daily gavage of 0.2 mL, and a total intake of 0.068 mmol IAANa); and • 5. Intraperitoneal injection group (with the IAANa concentration of 67 mg/mL, daily injection of 0.2 mL, and a total intake of 0.068 mmol IAANa).
# [3] = Concentration of IPA in feces of mice fed HAMSIPA feed; type: in vivo; settings: 15% and 1.5% in feed, one week
# Experimental: Indole acid derivatized starches with different degrees of substitution were added to a mouse feed in a ratio of 15% and 1.5%, respectively, and feces were taken to test the IPA content after mice were fed with a special feed prepared for one week.
# [4] = test system: B cells and CD4+CXCR5+ Tfh in the spleen of MRL/lpr mice; experiment: B cells, Tfh cells and BAFF in spleens of SLE mice; type: in vivo; settings: 1.5% HAMSIAA-0.32, after the experiment
# Experimental: After the experiment, the expression levels of CD3^− B220^+ B cells, B220^+IgM^+ B cells, B220^+CD138^+ B cells, and B220^+IgD^+ B cells in the spleen for mice in each group in this embodiment were tested. […] Wherein,
# After the experiment, the expression levels of CD4^+CXCR5^+ Tfh in the spleens for mice in each group and BAFF in mice in each group in this Example were tested.
# [5] = test system: ANA, Anti-dsDNA lgG2a, and Anti-Smith immune antibodies; experiment: Serum immune antibodies in SLE mice by ELISA; type: in vivo; settings: MRL/lpr mice; 1.5% HAMSIAA-0.32; after one month of treatment and after the experiment
# From the text: After one month of treatment with HAMSIAA, blood serum samples from each group for mice were collected once. After the experiment, blood serum samples from each group of mice were collected again. The expression levels of ANA, Anti-dsDNA lgG2a, and Anti-Smith immune antibodies in the blood serum were detected by ELISA technique.
# [6] = test system: cytokines IL-10, IL-6, IL-1, IL-22 in mouse colon tissue; experiment: Cytokine levels in colon tissue of DSS colitis mice; type: in vivo; settings: 1.5% HAMSIAA-0.32 in feed, vs model group
# Experimental: (§1) After the end of the experiment, a disease active index (DAI) of mice was evaluated, mouse colons were taken to measure their lengths, and a colon status of the mice was evaluated by sectioning, and the levels of cytokines IL-10, IL-6, IL-22, etc. in colon tissues of the mice were detected.
# [7] = test system: Systemic lupus erythematosus model (MRL/lpr); experiment: Systemic lupus erythematosus model mice: kidney pathology, skin damage, spleen and lymph nodes; type: in vivo; settings: 1.5% HAMSIAA-0.32 in feed, 14 weeks
# Experimental: • 1. Mouse food was prepared from the prepared […] in a certain addition ratio, and SLE model mice and control mice were purchased from Changzhou Cavens Experimental Animal Co., Ltd, aged 4-6 weeks. All mice were randomly divided into 4 groups: • Control group (MRL/MPJ); • Systemic lupus erythematosus model group (MRL/lpr); • Prednisone group (MRL/lpr+Prednisone); and • […] group ([…]). The […] group was given a special feed in which […] was added in a certain proportion for 14 weeks. Kidney tissues were collected after the end of the experiment. • 2. […] After the experiment, the spleens, cervical lymph nodes, and perirenal lymph nodes of each group for mice in this embodiment were collected.
# [8] = test system: TNF-α, IFN-γ, IL-4, IFN-α, IL-6 and IL-22; experiment: Serum cytokine content in SLE mice; type: in vivo; settings: MRL/lpr mice; 1.5% HAMSIAA-0.32; after the experiment
# [9] = test system: dextran sulfate sodium (DSS)-induced acute ulcerative colitis; experiment: DSS-induced acute ulcerative colitis in mice: body weight, colon length, DAI, colon status, tissue sections; type: in vivo; settings: tested as 15% HAMSIAA-0.49 in feed
# Experimental: as §1, with “detected. The effect of […] on the prevention and treatment of DSS-induced acute ulcerative colitis in mice was finally evaluated by these indicators.” for “detected.”
# [10] = mouse, in vivo
# Experimental: as §2, §3
# [11] = IAANa-containing drinking water
compound,measurement,setting,value
O=C([O-])Cc1c[nH]c2ccccc12.[Na+] [IAANa],concentration of IAA in the hepatic portal blood compared with the control group,[1]; [11],significant increase
same,concentration of IAA in the hepatic portal blood compared with the control group,[1]; gavage,significant increase
same,concentration of IAA in the hepatic portal blood compared with the control group,[1]; intraperitoneal injection,significant increase
same,concentration of IPA in the colonic contents compared with the control group,[2]; [11],not significantly changed
same,"concentration of IAA in feces (colonic contents, FIG. 8), improvement compared with the control group","[2]; IAANa-containing drinking water, 2.68 mg/mL",about 30 times
same,concentration of IPA in the colonic contents compared with the control group,[2]; gavage,not significantly changed
same,"concentration of IAA in feces (colonic contents, FIG. 8), improvement compared with the control group","[2]; gavage, 67 mg/mL, 0.2 mL daily",about 7 times
same,concentration of IPA in the colonic contents compared with the control group,[2]; intraperitoneal injection,not significantly changed
same,"concentration of IAA in feces (colonic contents, FIG. 8), improvement compared with the control group","[2]; intraperitoneal injection, 67 mg/mL, 0.2 mL daily",about 7 times
Indolepropionic Acid Derivatized High-Amylose Maize Starch [HAMSIPA],concentration of IPA in the feces compared with the HAMS group,[3],significantly increased
indoleacetic acid derivatized high-amylose maize starch [HAMSIAA],expression level (concentration) of BAFF,[4],inhibit
same,expression level of CD4+CXCR5+ Tfh in the spleen,[4],inhibit
same,proliferation and differentiation of B cells in the spleen (CD3− B220+ B cells),[4],inhibit
same,proportion of B220+CD138+ B cells (plasma cells) in the spleen,[4],reduce
same,proportion of B220+IgD+ B cells in the spleen,[4],increase
same,proportion of B220+IgM+ B cells in the spleen,[4],increase
same,expression level of ANA in blood serum,[5],significantly reduce
same,expression level of Anti-Smith in blood serum,[5],significantly reduce
same,expression level of Anti-dsDNA lgG2a in blood serum,[5],significantly reduce
same,level of anti-inflammatory cytokine IL-10 in the colon tissue,[6]; FIG. 17,significantly increased
same,level of pro-inflammatory cytokine IL-6 in the colon tissue,[6]; FIG. 18,significantly reduced
same,level of pro-inflammatory cytokine in the colon tissue,[6]; FIG. 19,significantly reduced
same,content of IL-22 in the colon tissue,[6]; FIG. 21,significantly increased
same,"HE staining of kidney tissues (glomerular volume, cellular proliferation, inflammatory cell infiltration)",[7],alleviated
same,Renal interstitial scores (renal interstitial nephritis),[7],significantly attenuates
same,cervical lymph node weight (lymph nodes enlargement),[7],significantly reduce
same,glomerular scores (glomerular injury),[7],significantly attenuates
same,glomerulonephritis and interstitial nephritis / symptoms in SLE mice compared with the SLE mouse model group,[7],effectively alleviate
same,perirenal lymph node weight (lymph nodes enlargement),[7],significantly reduce
same,scores of the degree of skin damage,[7],significantly reduces
same,IFN-α expression level in blood serum,[8],significantly reduce
same,IFN-γ expression level in blood serum,[8],significantly reduce
same,IL-4 expression level in blood serum,[8],significantly reduce
same,IL-6 expression level in blood serum,[8],significantly reduce
same,TNF-α expression level in blood serum,[8],significantly reduce
same,expression level of the anti-inflammatory cytokine IL-22 in blood serum,[8],promotes
same,severity of DSS-induced ulcerative colitis,[9],effectively alleviate
same,concentration of IPA in the colonic contents compared with the control group,[10],significantly increased
